Test results from BindingDB's records for patent US20240208953 (Novartis, 2024).

Molecular target: Potassium voltage-gated channel subfamily H member 2 (Homo sapiens, UniProt Q12809)
Experiment: hERG Qpatch Assay
Method: hERG currents were recorded using the Qpatch automated patch clamp systems (Sophion Bioscience Inc., North Brunswick, NJ) in the whole (single) cell configuration. hERG expressing CHO-K1 cells were harvested with Detachin (Genlantis) and stored in the modified serum-free SFM-2 media (Life Technologies) at room temperature. The extracellular solution contained (in mM) NaCl (145), KCl (4), MgCl2 (1), CaCl2 (2), and HEPES (10), pH 7.4, with NaOH. The intracellular solution contained KCl (135), MgCl2 (1.75), CaCl2 (5.4), EGTA (10), K2-ATP (4), and HEPES (10), pH 7.2, with KOH. After whole cell configuration was achieved, the cell was held at +-90 mV, and a 0.1 s pulse to +-50 mV was delivered to measure the leaking current, which was subtracted from the tail current online. Then the cell was depolarized to +20 mV for 4 s (prepulse), followed by a 4 s test pulse to +-50 mV to reveal the hERG tail current. To monitor changes in the current amplitude, this voltage protocol was repeatedly applied every 20 s. Test compounds were first diluted in DMSO for six dose-response experiments and then dissolved in the extracellular solution using Freedom EVO liquid handling robotic system (Tecan, M nnedorf, Switzerland). The final DMSO concentration in samples was 0.3% v/v. Amitriptyline (Sigma) was tested as a positive control.

Chain of Potassium voltage-gated channel subfamily H member 2 (Q12809 whole entry): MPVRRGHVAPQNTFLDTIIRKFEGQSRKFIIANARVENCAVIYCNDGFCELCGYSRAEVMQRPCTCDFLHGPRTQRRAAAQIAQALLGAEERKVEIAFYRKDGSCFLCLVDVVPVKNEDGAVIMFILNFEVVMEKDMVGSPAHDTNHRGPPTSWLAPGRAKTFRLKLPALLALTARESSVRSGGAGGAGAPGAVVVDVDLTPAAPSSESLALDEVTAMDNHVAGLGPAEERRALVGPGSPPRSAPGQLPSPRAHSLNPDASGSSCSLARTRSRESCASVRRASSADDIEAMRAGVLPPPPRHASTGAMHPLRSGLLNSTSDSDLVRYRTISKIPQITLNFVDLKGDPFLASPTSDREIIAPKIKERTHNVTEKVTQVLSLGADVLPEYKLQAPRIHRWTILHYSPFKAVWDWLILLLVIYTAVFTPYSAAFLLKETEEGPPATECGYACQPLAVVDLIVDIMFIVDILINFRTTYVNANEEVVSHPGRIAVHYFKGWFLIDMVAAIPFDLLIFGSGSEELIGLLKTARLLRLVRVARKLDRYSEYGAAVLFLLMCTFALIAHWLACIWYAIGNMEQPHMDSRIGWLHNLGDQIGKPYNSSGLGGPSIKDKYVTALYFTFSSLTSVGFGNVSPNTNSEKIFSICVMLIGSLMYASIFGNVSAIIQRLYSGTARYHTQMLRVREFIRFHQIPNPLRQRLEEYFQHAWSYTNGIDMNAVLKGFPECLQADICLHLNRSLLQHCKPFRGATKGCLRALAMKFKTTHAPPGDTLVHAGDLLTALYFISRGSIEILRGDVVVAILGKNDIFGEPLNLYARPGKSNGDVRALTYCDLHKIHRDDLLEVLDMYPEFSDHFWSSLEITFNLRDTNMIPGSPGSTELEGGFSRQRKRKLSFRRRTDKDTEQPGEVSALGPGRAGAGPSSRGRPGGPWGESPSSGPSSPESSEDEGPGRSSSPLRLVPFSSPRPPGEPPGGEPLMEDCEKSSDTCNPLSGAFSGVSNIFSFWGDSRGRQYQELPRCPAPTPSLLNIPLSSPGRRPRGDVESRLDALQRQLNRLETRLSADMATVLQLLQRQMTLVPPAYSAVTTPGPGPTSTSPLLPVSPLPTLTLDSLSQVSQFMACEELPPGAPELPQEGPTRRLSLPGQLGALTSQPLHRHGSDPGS

Row | SMILES | IC50 [µM]
1 | O=C1Nc2c(F)cc([C@@H](O)CN3C[C@H]4C[C@H](Oc5ccccc5)C[C@@]4(O)C3)cc2CO1 [US20240208953, Example 28A] | 2.4
2 | O=C1CCc2cc([C@H](O)CN3C[C@H]4C[C@H](Oc5ccccc5F)C[C@@]4(O)C3)cc(F)c2N1 [US20240208953, Example 29B] | 12.5
